Patent publication US11622964B2, “Method for destroying cellular mechanical homeostasis and promoting regeneration and repair of tissues and organs, and use thereof” (INSTITUTE OF ZOOLOGY, CHINESE ACADEMY OF SCIENCES, priority 2018, dated 2023)

Assays:
[1] = test system: CCl4-induced chronic severe hepatic fibrosis; assay: CCl4-induced chronic severe hepatic fibrosis model; assay type: in vivo, mice; settings: 1 mg or 3 mg per kg per day, intraperitoneal or tail vein injection, 6-8 weeks
Protocol: The ICR, C57Bl/6 mice used in the experiment are purchased from SPF (Beijing) Biotechnology Co., Ltd., carbon tetrachloride is purchased from Aladdin Reagent (Shanghai) Co., Ltd. (C131583-1L), and corn oil is purchased from Sigma (C8267). 8-10 week-old female mice are selected and housed in the barrier for one week, they are randomly divided into two groups, and respectively injected with CCl4/corn oil (a volume ratio of 1:2) and corn oil. The dose of CCl4 is 2 ml/kg, twice a week for […]. After 6 weeks, the mice are anesthetized with 5% chloral hydrate, and part of the hepatic lobe is taken out, fixing with 4% paraformaldehyde, dehydrating and immersing in wax, then staining with Sirius Red (YY-R20384-100ML) kit for fibrosis, wherein the collagenous fibers are red, as shown in FIG. 3B. After successful identification of the modeling, the drug administration is performed by intraperitoneal injection or tail vein injection. […] Further, quantitative PCR is performed to identify the expression of fibrosis-related genes Acta2 (myofibroblast marker), Col1a1 (representing type I collagen), Col1a2 (representing type I collagen), Col6a1 (representing collagen), Col6a2 (representing collagen), and Vim (representing fibroblasts), as shown in FIG. 3E and FIG. 3F (continued). […]

[2] = test system: mouse embryonic fibroblasts (MEFs); assay: TGF-β1-induced transformation of mouse embryonic fibroblasts into myofibroblasts; assay type: cell-based
Text: In this example, cell models for in vitro fibrosis are respectively built to activate mouse hepatic stellate Cells (mHSCs, FIG. 13(B)), mouse embryonic fibroblasts (MEFs FIG. 13(C)), mouse adult liver, lung, and heart-derived primary mesenchymal cells (priMCs, FIG. 13(D)), and human hepatic stellate cells (hLX-2, FIG. 13(E)) into myofibroblasts through the induction of TGF-β1. The specific experimental procedure is as shown in FIG. 9A: a medium containing 10% serum is used for the initial cell culture; after 24 hours the medium is replaced with low serum medium (or pre-starvation treatment for 16 hours) while adding 3 ng/ml TGF-β1 with DMSO or Bleb (20 μM); after 7 days the expression of myofibroblast activation marker protein (Acta2), collagen (Col1a1, Col1a2, Col3a1, and Col1a2), and matrix metalloproteinases and inhibitors (collagenases: MmP8, and MmP13; gelatinases: MmP2, and MmP9; a metalloproteinase inhibitor: Timp1/2/3) are identified.

[3] = test system: CCl4-induced mild hepatic fibrosis; assay: CCl4-induced mild hepatic fibrosis model; assay type: in vivo, mice; settings: 1 mg or 3 mg per kg per day, intraperitoneal or tail vein injection, 1-2 weeks
Protocol: The ICR, C57Bl/6 mice used in the experiment are purchased from SPF (Beijing) Biotechnology Co., Ltd., carbon tetrachloride is purchased from Aladdin Reagent (Shanghai) Co., Ltd. (C131583-1L), and corn oil is purchased from Sigma (C8267). 8-week-old female mice are selected and housed in the barrier for one week, they are randomly divided into two groups, and respectively injected with CCl4/corn oil (a volume ratio of 2:5) and corn oil. The dose of CCl4 is 0.5 ml/kg, twice a week for 4 weeks. After 4 weeks, the mice are anesthetized with 5% chloral hydrate, and part of the hepatic lobe is taken out, fixing with 4% paraformaldehyde, dehydrating and immersing in wax, then staining with Sirius Red (YY-R20384-100ML) kit for fibrosis, wherein the collagenous fibers are red, as shown in FIG. 2B. After successful identification of the modeling, the drug administration is performed by intraperitoneal injection or tail vein injection. The small molecule is dissolved in dimethyl sulfoxide at a concentration of 1 mg or 3 mg per kg per day; successfully adding 2-5% DMSO+30% propylene glycol+2% Tween 80+ddH2O, and the control group (“Control”) is abbreviated as “Con” in the figure. […]

human fibroblasts = assay: Transcriptome sequencing of treated human fibroblasts; assay type: cell-based

Structure (SMILES): Cc1ccc2c(c1)C(=O)[C@]1(O)CCN(c3ccccc3)C1=N2 [(−)-blebbistatin]
- accumulation of collagenous fibers (Sirius red, Col I staining) [1]: inhibits
- activation of myofibroblasts [1]: inhibits
- TGF-β1 induced transformation into myofibroblasts and extracellular matrix synthesis ([2]; 20 μM, 3 ng/ml TGF-β1, 7 days): significantly inhibits
- stretched state / fibrous morphology of MEFs ([2]; compared with DMSO, S-Bleb-OB 20 μM): may destroy the stretched state
- TGF-β1-induced myofibroblast activation ([2]; scheme as Example 9-1, S-Bleb-OB 20 μM): have an inhibitory effect
- fibrosis (Sirius red staining) [3]: significantly inhibits
- DNA replication, homologous recombination, mismatch repair, nucleotide excision repair and base excision repair related genes (human fibroblasts; 5-50 μM, after 6 hours): significantly upregulated
- important genes involved in homologous recombination (human fibroblasts; 5-50 μM, after 6 hours): significantly upregulated
- genes related to initiation of regeneration (such as FST) and neurogenesis-related genes (human fibroblasts; after induction for 22 days under the neural induction system): significantly upregulated
- mRNA expression of general stress response genes (human fibroblasts; day 1 and day 2): begins to downregulate
- genes related to general stress response (HSP70 family, HSP90) (human fibroblasts; early 6 hours of the induction): upregulated
